This is an account of results in publication PMC11490872, “Drug-resistant menin variants retain high binding affinity and interactions with MLL1” (The Journal of Biological Chemistry, 2024).

Changes are numbered by the printed parent chain. Where two headings read alike, the source gives them in different places.

A word on the IC50: it is the concentration that inhibits the measured activity by half. For orientation: Kd means the concentration at which binding is half-saturated.

Assay [1] has as its system patients with MLL1-r and NPM1-mut acute leukemias. The conditions noted are these: cited from earlier work.
Another assay has as its system menin M327I. Also noted: method as in PMID 36922589. The conditions noted are these: versus wild-type menin; cited from earlier work.
For assay [2], the target named is T1, menin^M327I bound to FLSN-MLL1^4-43 (Homo sapiens, UniProt O00255, M322I).
T1 construct: The gene encoding full-length human menin was cloned into a pET32a expression vector; thioredoxin-His6 (cleaved yes); made in house; host or cells: E. coli BL21(DE3); probe peptide from GenScript
T1 sequence (O00255 1-610 M322I): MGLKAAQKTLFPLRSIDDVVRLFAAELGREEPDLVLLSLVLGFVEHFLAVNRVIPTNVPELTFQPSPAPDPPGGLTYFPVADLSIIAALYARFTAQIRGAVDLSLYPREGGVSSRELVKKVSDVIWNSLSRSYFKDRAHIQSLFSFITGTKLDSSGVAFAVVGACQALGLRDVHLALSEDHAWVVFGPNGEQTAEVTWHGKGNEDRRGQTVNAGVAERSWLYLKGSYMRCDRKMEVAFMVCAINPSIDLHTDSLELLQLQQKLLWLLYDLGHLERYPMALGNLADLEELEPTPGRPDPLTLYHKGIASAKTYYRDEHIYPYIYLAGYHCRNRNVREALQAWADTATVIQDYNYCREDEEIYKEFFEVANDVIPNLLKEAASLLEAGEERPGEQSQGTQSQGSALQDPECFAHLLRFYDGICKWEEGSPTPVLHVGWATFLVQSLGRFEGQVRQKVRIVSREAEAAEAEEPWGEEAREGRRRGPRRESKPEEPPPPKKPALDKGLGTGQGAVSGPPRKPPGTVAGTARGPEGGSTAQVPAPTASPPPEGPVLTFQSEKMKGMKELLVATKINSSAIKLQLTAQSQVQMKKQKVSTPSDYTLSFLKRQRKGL
Briefly: FP competition, displacement of FLSN-MLL1^4-43 from menin^M327I. The format is binding. Here is the method:
(§1) FP competition experiments used FLSN-MLL1^4-43 at 4 nM and menin at 4 nM against varying concentrations of unlabeled MLL1 peptides in FP buffer for IC50 determination. Protein-peptide complexes were incubated for 1 h before unlabeled peptide competitors were added to ensure complete binding. Unlabeled peptide competitors were incubated with the protein-peptide complexes for 3 h before measurement using the PHERAstar microplate reader ([25]). Experiments with Revumenib were run with the same steps and conditions but used 5% DMSO in the final solution. Kd and IC50 values were calculated using GraphPad Prism 10 by plotting mP values measured for each protein/MLL1 peptide or Revumenib as a function of protein/MLL1 peptide (or Revumenib) concentration ([25]). All FP binding and competition experiments were run in triplicate.

Assay [3] deals with T2, menin^T349M bound to FLSN-MLL1^4-43 (Homo sapiens, UniProt O00255, T344M).
T2 construct: The gene encoding full-length human menin was cloned into a pET32a expression vector; thioredoxin-His6 (cleaved yes); made in house; host or cells: E. coli BL21(DE3); probe peptide from GenScript
T2 sequence (O00255 1-610 T344M): T1 sequence (O00255 1-610 M322I) with I322M, T344M
As to the kind of experiment: FP competition, displacement of FLSN-MLL1^4-43 from menin^T349M. The class given is binding. The method, then:
as §1

The next assay concerns the target T3, menin^M327I (Homo sapiens, UniProt O00255, M322I).
T3 construct: The gene encoding full-length human menin was cloned into a pET32a expression vector; thioredoxin-His6 (cleaved yes); made in house; host or cells: E. coli BL21(DE3)
T3 sequence (O00255 1-610 M322I): T1 sequence (O00255 1-610 M322I)
Briefly: ITC binding of MLL1 fragments to menin^M327I. Here is the method:
Menin and MLL1 fragments were dialyzed at 4 °C against a 50 mM sodium phosphate pH 7.5, 50 mM NaCl, 1 mM TCEP buffer, and degassed prior to measurement. The titrations were performed using the VP-ITC system (MicroCal) at 25 °C. The calorimetric cell, which contained menin (concentrations in the 5–10 μM range), was titrated with the MLL1^160 and MLL1^4-15 derived peptides (concentration range 40–100 μM) injected in 10-μL aliquots. Data was analyzed using Origin 7.0 (OriginLab) to obtain Kd, stoichiometry, entropy, and enthalpy ([2]). Experiments with WT, M327I, T349M, and G331R menin and MLL1^160 or MLL1^4-15 were run in duplicate. Experiments with G331D menin and MLL1^160 were run in duplicate while experiments with G331D and MLL1^4-15 were run in quadruplicate.

Setting [4] is: Phase 1/2, AML patients with KMT2A (MLL1) rearrangements and NPM1 mutations.
Setting [5] is: FP competition with MLL1 fragments, 3 h incubation, N = 3, Fig. 3B, read-out: M327I IC50.
Where [6] appears, read: FP competition with MLL1 fragments, 3 h incubation, N = 3, Fig. 3B, read-out: T349M IC50.

For the molecule `CCN(C(=O)c1cc(F)ccc1Oc1cncnc1N1CC2(CCN(C[C@H]3CC[C@H](NS(=O)(=O)CC)CC3)CC2)C1)C(C)C` [Revumenib, reference compound], in assay [1] (setting [4]), the complete remission was approximately 35% and the overall response rate is reported as approximately 45%. The “rate of complete remission” value in assay [1] (phase 1/2 first-in-human trials, MLL1-r and NPM1-mut acute leukemias) is “over 30%”. The “reduction of binding by M327I mutation” value in the assay with menin M327I was 51 fold. Moreover, the IC50 in assay [2] (FP competition, 5% DMSO, 3 h, N = 3, Fig. 4A, read-out: IC50 (nM), menin variant M327I) is 535 ± 37 nM. In addition, the IC50 in assay [3] (FP competition, 5% DMSO, 3 h, N = 3, Fig. 4A, read-out: IC50 (nM), menin variant T349M) worked out at 125 ± 11 nM.
As for “MLL1^46: recombinant MLL1 fragment spanning amino acids 1–46, containing MBM1 and MBM2 (MAHSARWRFPARPGTTGGGGGGGRRGLGGAPRQRVPALLLPPGPPV; The printed 'Cys2' is Cys5 in the entry (peptide S4-A5-R6); Trx-His6 tag cl)”, the figures for the IC50 in assay [2] (setting [5]) and in assay [3] (setting [6]) were 1.7 ± 0.7 nM and 1.9 ± 0.5 nM, respectively.

B1: MLL1^160: N-terminal 160 amino acids of human MLL1, Cys2 mutated to alanine, recombinant (protein)
chain: MAHSARWRFPARPGTTGGGGGGGRRGLGGAPRQRVPALLLPPGPPVGGGGPGAPPSPPAVAAAAAAAGSSGAGVPGGAAAASAASSSSASSSSSSSSSASSGPALLRVGPGFDAALQVSAAIGTNLRRFRAVFGESGGGGGSGEDEQFLGFGSDEEVRVR
modifications: The printed 'Cys2' is the single N-terminal cysteine, Cys5 in the entry (peptide S4-A5-R6); Trx-His6 tag cleaved
B1: the 50% inhibitory concentration (IC50) in assay [2] (setting [5]) was found to be 5.1 ± 0.2 nM; in assay [3] (setting [6]) it was 4.4 ± 0.8 nM. For the same molecule, the Kd was 2.2 ± 0.6 nM with menin^M327I (ITC summary Fig. 1B, values marked *, n = 2, read-out: M327I Kd (nM), ITC) and 2.2 ± 0.6 nM with menin^M327I (ITC, representative binding isotherm Fig. 1A, 25 °C, read-out: Kd).
